Laboratory results published in US7135470B2, “Thienopyridazines as IKK inhibitors” (Roche Palo Alto LLC, priority 2004, dated 2006).

Biological target: T1, purified recombinant human IKKb (Homo sapiens, UniProt O14920)
T1 sequence (O14920 1-756): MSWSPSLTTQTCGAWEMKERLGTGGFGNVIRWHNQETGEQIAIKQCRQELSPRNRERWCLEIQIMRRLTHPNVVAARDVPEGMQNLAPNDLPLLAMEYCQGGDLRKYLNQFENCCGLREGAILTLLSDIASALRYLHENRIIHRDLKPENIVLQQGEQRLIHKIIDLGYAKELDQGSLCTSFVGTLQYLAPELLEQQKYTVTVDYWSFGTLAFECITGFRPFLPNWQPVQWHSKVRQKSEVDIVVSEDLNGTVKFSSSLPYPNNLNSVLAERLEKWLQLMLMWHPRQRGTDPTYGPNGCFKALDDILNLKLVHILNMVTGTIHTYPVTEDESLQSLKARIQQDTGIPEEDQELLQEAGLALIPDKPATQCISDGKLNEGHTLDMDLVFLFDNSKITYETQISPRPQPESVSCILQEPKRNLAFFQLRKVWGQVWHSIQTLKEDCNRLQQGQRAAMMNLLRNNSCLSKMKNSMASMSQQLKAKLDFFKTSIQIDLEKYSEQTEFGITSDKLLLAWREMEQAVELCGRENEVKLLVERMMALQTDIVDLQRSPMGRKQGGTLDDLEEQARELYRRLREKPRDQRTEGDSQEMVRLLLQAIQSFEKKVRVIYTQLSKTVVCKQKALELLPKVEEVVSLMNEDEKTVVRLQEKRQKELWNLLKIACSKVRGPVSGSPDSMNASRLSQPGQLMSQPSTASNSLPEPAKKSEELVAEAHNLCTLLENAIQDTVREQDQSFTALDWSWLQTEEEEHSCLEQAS
Assay: IKKb kinase assay, incorporation of radiolabeled 33P gATP into Biotin-peptide substrate derived from IkB-alpha
Type: biochemical
Details: recombinant human IKKb 25 nM, ATP 10 μM, peptide substrate 30 μM, 30 minutes at 30° C.
Method: This example describes an assay that is useful in evaluating and selecting a compound that modulates IKK. The assay measures the incorporation of radiolabeled ^33P gATP into the Biotin-peptide kinase substrate, derived from the IkB-alpha sequence.
In a 40 ul volume, 26 ul of ADB diluted, purified recombinant human IKKb [25 nM] was mixed with 4 ul 10× concentration of test compounds, [usually 100 uM–0.003 uM], [10%] DMSO and incubated for 10 minutes at room temperature. The kinase reaction was initiated by the addition of 10 ul 4× substrate cocktail containing the peptide substrate [0 or 30 μM] ATP [10 μM], and ^33PgATP [2uCi/rxn]. After 30 minutes of incubation at 30° C., the reaction was terminated by the transfer of 25 ul reaction sample to a phosphocellulose membrane/plate containing 150 ul 0.75% phosphoric acid.
On the following day, the free radionucleotides in the phosphocellulose membrane were washed under vacuum with 3×200 ul of 0.75% phosphoric acid. After the last wash membrane/plates were transferred to an adoptor plate and 70 ul of scintillation cocktail was added to each well. After four hours, the amount of radioactivity for each well was counted in a top counter.

Compound `NC(=O)c1nnc(N)c2cc(-c3ccc(F)cc3)sc12` [Compound 3, 4-Amino-2-(4-fluoro-phenyl)-thieno[2,3-d]pyridazine-7-carboxylic acid amide] has an IC50 of under 1000 nM.
